Results on 13 compounds are retold here after ChEMBL document CHEMBL4334436 (Medchemcomm, 2019).

A word on the Ki: it is the equilibrium dissociation constant of an inhibitor or competing ligand from its target. Low readings indicate tighter binding, high ones weaker binding.

Test [1] has as its target D(2) dopamine receptor (Homo sapiens, UniProt P14416). Nature of the test: Displacement of [3H]spiperone from human dopamine D2S receptor expressed in CHO-K1 cell membrane incubated for 2 hrs by MicroBeta Trilux scintillation counting method. The class given is cell membranes. Background: In a radioligand displacement assay an active substance lowers the binding of a labelled ligand.

Test [2] deals with D(3) dopamine receptor (Homo sapiens, UniProt P35462). Nature of the test: Displacement of [3H]spiperone from human dopamine D3 receptor expressed in dihydrofolate reductase deficient CHO-K1 cell membrane incubated for 2 hrs by MicroBeta Trilux scintillation counting method. The class given is cell membranes.
D(3) dopamine receptor, sequence (P35462 whole entry): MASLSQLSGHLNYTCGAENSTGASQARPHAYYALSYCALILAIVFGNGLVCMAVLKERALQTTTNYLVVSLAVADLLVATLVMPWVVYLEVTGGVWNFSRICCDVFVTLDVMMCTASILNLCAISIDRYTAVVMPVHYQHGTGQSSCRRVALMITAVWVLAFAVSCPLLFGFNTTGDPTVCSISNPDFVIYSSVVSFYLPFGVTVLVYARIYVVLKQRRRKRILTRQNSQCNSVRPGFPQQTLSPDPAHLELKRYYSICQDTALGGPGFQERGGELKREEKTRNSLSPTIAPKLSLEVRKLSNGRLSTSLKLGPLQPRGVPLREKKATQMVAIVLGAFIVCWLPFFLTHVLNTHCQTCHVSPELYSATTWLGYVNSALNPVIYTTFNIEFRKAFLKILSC

D(2) dopamine receptor, sequence (P14416 whole entry): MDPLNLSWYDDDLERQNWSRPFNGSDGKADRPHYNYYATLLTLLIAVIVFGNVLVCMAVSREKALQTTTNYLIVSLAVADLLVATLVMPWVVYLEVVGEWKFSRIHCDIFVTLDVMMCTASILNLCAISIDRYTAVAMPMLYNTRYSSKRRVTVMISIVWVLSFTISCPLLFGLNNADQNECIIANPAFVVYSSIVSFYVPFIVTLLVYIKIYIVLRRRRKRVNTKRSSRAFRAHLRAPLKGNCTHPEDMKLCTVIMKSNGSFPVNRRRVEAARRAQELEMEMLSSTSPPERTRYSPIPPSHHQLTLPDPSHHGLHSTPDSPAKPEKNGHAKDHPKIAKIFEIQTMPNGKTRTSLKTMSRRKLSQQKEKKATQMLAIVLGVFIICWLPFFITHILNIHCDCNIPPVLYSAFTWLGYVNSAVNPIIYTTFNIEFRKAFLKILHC

For the compound `Nc1nc2c(s1)CCN(CCCCN1CCN(c3ncccn3)CC1)CC2`, the results for the inhibition constant Ki in test [1] and in test [2] were 2.75 µM and 3.8 µM, respectively.
For `O=C(c1ccccc1)N1CCN(CCN2CCc3ncsc3CC2)CC1`, the figures for the Ki in test [1] and in test [2] were 41.7 µM and 12.3 µM, respectively.
For `c1cnc(N2CCN(CCCCN3CCc4ncsc4CC3)CC2)nc1` the same measures were 2.51 µM and 3.09 µM.
For `Clc1cccc(N2CCN(CCCCN3CCc4ncsc4CC3)CC2)c1Cl` the same measures were 0.0182 µM and 0.0282 µM.
On the same counts, the results for `COc1ccccc1N1CCN(CCCCOc2ccc3scnc3c2)CC1` are 0.00324 µM and 0.00851 µM.
Take `COc1ccccc1N1CCN(CCN2CCc3ncsc3CC2)CC1`: the values for the Ki in test [1] and in test [2] were 0.151 µM and 0.24 µM, respectively.
Turning to `O=C(NCCCCN1CCc2ncsc2CC1)C12CC3CC(CC(C3)C1)C2`, the results for the Ki in test [1] and in test [2] were 5.5 µM and 0.447 µM, respectively.
As for `COc1ccccc1N1CCN(CCCCOc2ccc3sc(N)nc3c2)CC1`, the figures for the Ki in test [1] and in test [2] were 0.00282 µM and 0.00302 µM, respectively.
For `c1nc2c(s1)CCN(CCCCN1CCc3ncsc3CC1)CC2` the same measures were 6.31 µM and 3.8 µM.
For `COc1ccccc1N1CCN(CCCN2CCCc3ncsc3C2)CC1` the same measures were 0.178 µM and 0.257 µM.
For `COc1ccccc1N1CCN(CCCN2CCc3ncsc3CC2)CC1` the same measures were 0.0646 µM and 0.166 µM.
For `Nc1nc2c(s1)CCN(CCCCN1CCN(c3cccc(Cl)c3Cl)CC1)CC2`, the Ki is 0.0224 µM in test [1] and 0.0257 µM in test [2].
In the case of `COc1ccccc1N1CCN(CCCCN2CCc3ncsc3CC2)CC1`, the results for the Ki in test [1] and in test [2] were 0.0851 µM and 0.309 µM, respectively.
